Results as given in patent US20100173837A1, “DOSING FORMS AND REGIMENS COMPRISING 3-[(R)-2-(N,N-DIMETHYLAMINO)ETHYLTHIO-SAR]-4-(GAMMAHYDROXYMETHYLLEUCINE)CYCLOSPORINE” (priority 2009, published 2010).
≈ marks a conversion by molar mass, not a printed value. Where “and” joins values, the source holds several entries; their conditions need not be identical. Identical values can stand only once. Like-named read-outs stand apart in the source and are kept apart here.

Key:
[1] = human, in vivo
Source text: SCY-635 (given as oral capsules [400 milligram dose] or tablets [500 and 600 milligram doses] as described in Example 3 above) was examined in a randomized, double-blind, placebo-controlled, pharmacokinetic study in normal healthy adult volunteers. Three cohorts received a single dose of either 400, 500 or 600 milligrams of SCY-635. Each cohort was comprised of 8 human subjects (2 placebo and 6 active). Blood samples were collected from human subjects during the 72-hour interval immediately following administration of a single dose of SCY-635.

[2] = single dose pharmacokinetic study in healthy volunteers; conditions: human, in vivo, 400 mg single dose (capsules), read-out: Mean SCY-635 Plasma Concentration
Experimental: Blood samples were collected from human subjects during the 72-hour interval immediately following administration of a single dose of SCY-635. […] Concentrations of SCY-635 in human blood and plasma samples from the study described in this Example were determined using validated high pressure liquid chromatography/tandem mass spectrometric (HPLC-MS/MS) methods with assay ranges of 50 to 5000 ng/mL for whole blood and 15 to 2000 ng/mL for plasma. The table below summarizes the results obtained (“BLOQ” means below the limit of quantitation).

[3] = human, in vivo; remark: listed apart in the source
Experimental: SCY-635 (given as oral capsules as described in Example 3 above) was examined in a randomized, double-blind, placebo-controlled, multi-dose study to adult volunteers who are chronically infected with hepatitis C (subtype 1). Three cohorts received 100, 200 or 300 milligrams of SCY-635 three times per day (100 mg, 200 mg or 300 mg t.i.d., respectively) per os for 15 consecutive days. The 100 mg t.i.d. cohort was comprised of 7 human subjects (1 placebo and 6 active); the 200 mg t.i.d. cohort was comprised of 6 human subjects (1 placebo and 5 active); and the 300 mg t.i.d. cohort was comprised of 7 human subjects (1 placebo and 6 active).
All human subjects were male (n=20); 75% were African American. Average age was 53.0 years. Average HCV RNA plasma viremia on enrollment was 5,600,000 IU/ml, as measured by the quantitative Roche COBAS taqMan assay. 55% of human subjects were treatment naïve.

hepatitis C (subtype 1) = assay: plasma HCV RNA viral load in HCV-infected subjects, 15-day t.i.d. study; type: in vivo, human; conditions: 15 days, per os
Experimental: All human subjects were male (n=20); 75% were African American. Average age was 53.0 years. […] Viral load data from the study described in Example 4 above was measured by the quantitative Roche COBAS […] assay. The test measures HCV RNA in International Units (IU) per mL using real-time Polymerase Chain Reaction (RT-PCR) technology. […] All clinical viral load samples were assayed at LabCorp.

[4] = 500 mg b.i.d. 14-day pharmacokinetic study in healthy volunteers; conditions: human, in vivo, 264 h post first dose, read-out: Mean SCY-635 Plasma Concentration
Source text: SCY-635 (given as oral tablets as described in Example 3 above) was examined in a double-blind, placebo-controlled, pharmacokinetic study in normal healthy adult volunteers. […] On Day 14, only the morning dose of drug was given and blood samples were collected during the 72-hour interval immediately following administration of the final dose. In addition, blood samples for the measurement of trough drug concentrations were collected from the subjects immediately prior to the administration of SCY-635 on the mornings of Days 2-6 and 8-13. […] Concentrations of SCY-635 in human blood and plasma samples from the two subjects were determined using validated high pressure liquid chromatography/tandem mass spectrometric (HPLC-MS/MS) methods with assay ranges of 50 to 5000 ng/mL for whole blood and 15 to 2000 ng/mL for plasma.

Huh-7 cell line = assay: in vitro; conditions: Huh-7 cell line
Experimental: (§1) Cell cytotoxicity was assessed by measuring the release of lactate dehydrogenase from cell membranes and by measuring total ribosomal RNA. […] SCY-635 was assessed for cytotoxicity in primary human hepatocytes. […] SCY-635 was also assessed for cytotoxicity in primary human renal tubular epithelial cells.

in vitro = conditions: human
Experimental: as §1

cyclophilin A [5] = target: T1, cyclophilin A (Homo sapiens, UniProt P62937); conditions: in vitro studies; cited from earlier work
[6] = system: HCV-specific RNA replication; conditions: subgenomic and full length replicon systems; cited from earlier work
[7] = system: human hepatoma cell line containing full length replicon; assay: cytotoxicity in full length replicon cells (ribosomal RNA); type: cell-based; conditions: concentrations up to 10 μM, 72-hour incubation
Experimental: (§2) The anti-HCV activity of SCY-635 was also assessed in a human hepatoma cell line that contains a full length genotype 1b derived replicon. Cells were processed following a 72-hour incubation at 37° C. Intracellular RNA from each well was extracted and the level of HCV-specific RNA was determined by reverse transcriptase-real time PCR. Cytotoxic effects were measured by assessing ribosomal RNA as an indication of total cell numbers.

[8] = system: Con1 (genotype 1b) bi-cistronic subgenomic replicon in Huh-7; assay: anti-HCV activity in Huh-7 subgenomic replicon, luciferase; type: cell-based; conditions: for EC50 / EC90 / IC50 / IC90: Hepatitis C virus; for EC50: corresponds to IC50 in μM, read-out: mean effective concentration EC50; for EC90: read-out: mean effective concentration EC90
Experimental: The anti-HCV activity of SCY-635 was assessed in a human hepatoma cell line (Huh-7) that contains a Con1 (genotype 1b) bi-cistronic subgenomic replicon. The replicon contains a stable luciferase reporter gene and three cell culture adaptive mutations. The subgenomic replicon contains the 5′ terminus (which includes the HCV Internal Ribosomal Entry Site and the first few amino acids of the HCV core protein) which drives the production of the neomycin phosphotransferase protein. The EMCV IRES element directs the translation of the second cistronic unit that encodes the non-structural proteins NS3, NS4A, NS4B, NS5A, and NS5B. For comparative purposes HCV RNA replication was assessed by quantifying HCV replicon-derived luciferase activity and by quantifying HCV-specific RNA using reverse transcriptase-real time PCR. Duplicate plates were incubated with various concentrations of SCY-635 and were processed either for luciferase activity or for total RNA extraction at 24, 48, 72 and 120 hours after drug treatment. SCY-635 was tested at twelve half-log dilutions ranging from 0.00016 to 50 μM. Stock solutions of each test article were diluted into culture media and added to the plate. After a 72 hour incubation, cells were processed to determine luciferase luminescence as a measurement of antiviral activity. Three replicates were performed and mean values were calculated.

[9] = system: full length genotype 1b derived replicon in human hepatoma cell line; assay: anti-HCV activity in full length genotype 1b replicon, RT-PCR; type: cell-based; conditions: 72-hour incubation
Experimental: as §2

[10] = system: primary human renal tubular epithelial cells
Experimental: as §1

[11] = system: primary human hepatocytes
Experimental: as §1

cyclophilin A [12] = target: T1, cyclophilin A; conditions: in vitro studies; cited from earlier work; remark: listed apart in the source
replicon cells = assay: cell cytotoxicity on replicon cells (LDH release, ribosomal RNA); conditions: replicon cells
Experimental: as §1

[13] = as above; conditions: human, replicon cells (Huh-7 background)
Experimental: as §1

[14] = human, in vivo; remark: listed apart in the source
Source text: SCY-635 (given as oral tablets as described in Example 3 above) was examined in a double-blind, placebo-controlled, pharmacokinetic study in normal healthy adult volunteers. […] On Day 14, only the morning dose of drug was given and blood samples were collected during the 72-hour interval immediately following administration of the final dose. In addition, blood samples for the measurement of trough drug concentrations were collected from the subjects immediately prior to the administration of SCY-635 on the mornings of Days 2-6 and 8-13.

[15] = Huh-7, by inspection of the curves
[16] = linear regression, 72 hour incubation, luciferase

T1 sequence (P62937 whole entry): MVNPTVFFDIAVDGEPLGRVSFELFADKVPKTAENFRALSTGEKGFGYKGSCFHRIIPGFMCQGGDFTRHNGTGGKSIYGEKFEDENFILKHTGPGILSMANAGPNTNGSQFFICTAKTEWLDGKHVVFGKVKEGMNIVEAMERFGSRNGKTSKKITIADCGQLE

C/C=C/C[C@@H](C)[C@@H](O)[C@H]1C(=O)N[C@@H](CC)C(=O)N(C)[C@H](SCCN(C)C)C(=O)N(C)[C@@H](CC(C)(C)O)C(=O)N[C@@H](C(C)C)C(=O)N(C)[C@@H](CC(C)C)C(=O)N[C@@H](C)C(=O)N[C@H](C)C(=O)N(C)[C@@H](CC(C)C)C(=O)N(C)[C@@H](CC(C)C)C(=O)N(C)[C@@H](C(C)C)C(=O)N1C [SCY-635, 3-[(R)-2-(N,N-dimethylamino)ethylthio-Sar]-4-(gammahydroxymethylleucine)cyclosporine]
dose limiting toxicity [1]: no evidence of a dose limiting toxicity | concentration at 8 h [2]: 107 ng/mL | dose limiting toxicity [3]: no evidence of a dose limiting toxicity | mean nadir value of plasma HCV RNA below baseline (hepatitis C (subtype 1); 100 mg t.i.d.): less than 0.5 log10 | median nadir value of plasma HCV RNA below baseline (hepatitis C (subtype 1); 100 mg t.i.d.): less than 0.5 log10 | mean nadir value of plasma HCV RNA below baseline (hepatitis C (subtype 1); 200 mg t.i.d.): less than 0.5 log10 | median nadir value of plasma HCV RNA below baseline (hepatitis C (subtype 1); 200 mg t.i.d.): less than 0.5 log10 | group mean nadir value of plasma HCV RNA below baseline (hepatitis C (subtype 1); 300 mg t.i.d.): 2.33 log10 | group median nadir value of plasma HCV RNA below baseline (hepatitis C (subtype 1); 300 mg t.i.d.): 1.90 log10 | concentration at 264 h [4]: 411 ng/mL | selectivity index (CC50/IC50) (Huh-7 cell line): 124.5 | CC50 at 72 h (in vitro): 13700 nM | inhibition of peptidyl prolyl isomerase activity of cyclophilin A (cyclophilin A [5]): inhibiting its intrinsic peptidyl prolyl isomerase activity | inhibition of HCV-specific RNA replication [6]: potent and selective inhibition | cell cytotoxicity [7]: absence of significant cell cytotoxicity | EC50 [8, 15]: 0.107 µg/mL (≈ 0.0809 µM) | EC50 ([8]; Huh-7, linear regression): 0.121 µg/mL (≈ 0.0915 µM) | EC90 ([8]; Huh-7, linear regression, corresponds to IC90 in μM): 0.501 µg/mL (≈ 0.379 µM) | IC50 ([8]; Huh-7, by inspection of the curves, 72 hour incubation, luciferase, read-out: mean IC50 (HCV replication)): 81 nM | IC90 ([8]; Huh-7, by inspection of the curves, read-out: mean IC90 (HCV replication)): 333 nM | EC90 [8, 15]: 0.441 µg/mL (≈ 0.334 µM) | IC50 ([8]; Huh-7, linear regression, 72 hour incubation, luciferase, read-out: mean calculated IC50 (HCV replication)): 91 nM | IC90 ([8]; Huh-7, linear regression, 72 hour incubation, luciferase, read-out: mean calculated IC90 (HCV replication)): 397 nM | mean IC75 (HCV replication) ([8]; by inspection of the curves): 165 nM | mean IC95 (HCV replication) ([8]; by inspection of the curves): 410 nM | mean IC98 (HCV replication) ([8]; by inspection of the curves): 0.500 µM | mean effective concentration EC75 ([8]; by inspection of the curves): 0.217 µg/mL | mean effective concentration EC95 ([8]; by inspection of the curves): 0.542 µg/mL | mean effective concentration EC98 ([8]; by inspection of the curves): 661 ng/mL | mean effective concentration EC99 ([8]; by inspection of the curves): 2088 ng/mL | sixth IC value of the list (not named; matches EC99) ([8]; by inspection of the curves): 1.580 µM | mean calculated IC75 (HCV replication) [8, 16]: 200 nM | mean calculated IC95 (HCV replication) [8, 16]: 455 nM | mean effective concentration EC75 ([8]; linear regression, corresponds to IC75 in μM): 0.264 µg/mL | mean effective concentration EC95 ([8]; linear regression, corresponds to IC95 in μM): 0.601 µg/mL | EC50 ([9]; 3 independent experiments, single values, read-out: EC50 (HCV-specific RNA)): 160 nM and 210 nM | EC90 ([9]; 3 independent experiments, single values, read-out: EC90 (HCV-specific RNA)): 710 nM and 790 nM | EC50 ([9]; Hepatitis C virus, 72 h, 3 independent experiments, single values, read-out: EC50 (HCV-specific RNA)): 130 nM | EC90 ([9]; Hepatitis C virus, 72 h, 3 independent experiments, single values, read-out: EC90 (HCV-specific RNA)): 570 nM | EC50 ([9]; Hepatitis C virus, 72 h, mean of 3 experiments, read-out: mean EC50 (HCV-specific RNA)): 170 nM | EC90 ([9]; Hepatitis C virus, 72 h, mean of 3 experiments, read-out: mean EC90 (HCV-specific RNA)): 690 nM | 50% inhibitory concentration for cell viability [10]: 60.6 µM | 50% inhibitory concentration for cell viability ([11]; human, 48 h): 33 µM | selectivity index ([11]; primary human hepatocytes): approximately 300 | binding to cyclophilin A (cyclophilin A [12]): capable of binding to cyclophilin A | selectivity index (CC50/IC50) (replicon cells): 129.0 | cell cytotoxicity (replicon cells; 72-hour incubation, concentrations up to and including 5 μM): No significant cell cytotoxicity | CC50 at 72 h [13]: 14200 nM | dose limiting toxicity [14]: no evidence of a dose limiting toxicity
